Assay results: patent US8691851B2, “Lanthanide metal complexes useful in treating cancer” (National University of Singapore, priority 2009, dated 2014)

Assays:
[1] = system: MDA-MB-231 breast cancer cells; settings: high PPARγ expressing cells, 24 hours
Experimental: (§1) To detect breast cancer cell death via cell viability assay, the mitochondrial activity, as an index of cell viability, was measured using the MTT method (Mosmann, T. J Immunol Methods, 1983; 65: 55-63). Briefly, cells were treated in triplicates in 96-well plate. After completion of the experimental period, 20 μl of MTT reagent (5 mg/ml) was added per well of culture (containing 100 μl treatment media). The reaction was allowed to proceed for 4 to 6 h at 37° C. SDS (10%) was then added (200 μl/well) overnight and the absorption at 595 nm measured.

[2] = system: SHEP1 cells; settings: mPPARg PCMX versus empty vector, 0 to 5 uM
Experimental: as §1

[3] = system: T47D breast cancer cells; settings: low PPARγ expressing cells, 24 hours
Experimental: as §1

[4] = system: SHEP1 and SHSY5Y neuroblastoma cells; settings: 24 hours
Experimental: as §1

[5] = system: AIF (apoptosis inducing factor); settings: SHEP-1 cells, 5 μM and 10 μM, 24 hr
Experimental: Different concentrations (5 μM and 10 μM) of C19H24N3O5S5Pr (indicated as “Pr-MPO”) were administered into SHEP-1 cancer cells. The detection of AIF in the cytosol and nucleus fractions was determined by Western Blot analysis at 18 hr and 24 hr of treatment with C19H24N3O5S5Pr.

CS(C)=O.CS(C)=O.[O-][n+]1ccccc1[S-].[O-][n+]1ccccc1[S-].[O-][n+]1ccccc1[S-].[Pr+3] [C19H24N3O5S5Pr, praseodymium (2-mercaptopyridine N-oxide)(dimethylsulfoxide)]
cell viability (MTT) [1]: inhibits growth | cell viability on overexpression of wild type PPARγ [2]: greater decrease in cell viability | cell viability (MTT) [3]: remained viable | cell viability (MTT), SHEP1 versus SHSY5Y cells [4]: has a greater growth of SHEP1 cells compared to SHSY5Y cells | AIF translocation [5]: AIF was translocated into the nucleus
